This note sets out measurements from patent publication US12285490B2, “ASH1L degraders and methods of treatment therewith” (The Regents of the University of Michigan, priority 2017, dated 2025).

SMILES strings stand for the structures.

For experiment [1], the system named is acute leukemia cell lines. Description: Cell viability / proliferation in various acute leukemia cell lines. In kind it is cell-based, human. Particulars: after 7 days of treatment. The method, then: (§1) Human leukemia cells were plated at 1×10^5 cells/ml in 24-well plates, treated with 0.25% DMSO or compounds and cultured at 37° C. for 7-14 days. Every four days, the volume corresponding to 1×10^5 cells of DMSO-treated cells was spun down and resuspended in fresh media with fresh compound. At day 0 and each four day interval, 100 μl aliquots of the cell suspension were transferred to 96-well plates in quadruplicates. The quadruplicate samples were incubated for 3-4 days at 37° C., and then an MTI cell proliferation assay kit (Roche) was used to measure viable cells. Absorbance was read at 570 nm using a PHERAstar (BMG) microplate reader.

In experiment [2] the test system is acute leukemia cell lines. Description: Differentiation of leukemia cells (Cytospin/Wright-Giemsa staining). In kind it is cell-based, human. Particulars: after 7 days of treatment. As for the experimental part:
1×10^5 of leukemia cells treated with compounds or DMSO were harvested and placed in a Shandon EZ Single Cytofunnel (Thermo Fisher). Samples were centrifuged at 600 rpm for 5 min. The slides were air dried before staining with a Hema-3 kit (Thermo Fisher).

Experiment [3] relates to MLL fusion target genes in MV4:11 MLL leukemia cell line. Kind of experiment: Quantitative RT-PCR gene expression in MV4:11 cells. Particulars: after 7 days of treatment. In kind it is cell-based, human. As for the experimental part: (§2) Total RNA was extracted from cells using the RNeasy mini kit (QIAGEN), and then 100-2000 ng of total RNA was reverse transcribed using the High Capacity cDNA Reverse Transcription Kit (Applied Biosystems) according to the manufacturer's protocol. Real-time PCR was performed using a CFX96 Real-Time PCR Detection System (Biorad). TaqMan Gene Expression Master Mix and TaqMan Gene Expression Assays were purchased from Thermo Fisher. Relative quantification of each gene transcript was carried out using the ΔΔCt method as described in the Biorad Real-Time PCR Applications Guide.

The next experiment addresses T1, ASH1L (Homo sapiens, UniProt Q9NR48).
T1 construct: endogenous in cells; host or cells: HeLa cells
Description: Western blot of ASH1L degradation in HeLa cells. In kind it is cell-based. The method, then: The 2.5×10^5 HeLa cells were treated with compounds for 24 h followed by the lysis in the RIPA buffer. The protein samples were loaded and run in the 3-8% Tris-acetate gel. After transferring proteins to the PVDF membrane, 5% bovine serum albumin solution was used for blocking for 2 h at room temperature. The membranes were incubated with the ASH1L-specific antibody (Bethyl A301-749A) at 4° C. overnight and subsequently with the anti-rabbit secondary antibody (Cell signaling technology, 7074S). The blots were detected by an ECL detection system (Amersham, RPN2236).
(Immunoblotting shows a protein as a band on a membrane.)

The test system of a further experiment is KOPN8. Description: Cell viability assay (MTT) in KOPN8 cells. It is filed as cell-based. The following applies: Homo sapiens, KOPN-8, 168 h; KOPN8, after 7 days of treatment. As for the experimental part:
as §1

The test system of experiment [4] is MLL fusion protein target genes in MOLM13 leukemia cell line. Description: Quantitative RT-PCR gene expression in MOLM13 cells. In kind it is cell-based, human. The following applies: after 6 days of treatment at 150 nM. As for the experimental part: as §2
For the next experiment, the system named is K562 control cell line. Description: Cell viability assay (MTT) in K562 control cell line. The following applies: Homo sapiens, 168 h, after 7 days of treatment. In kind it is cell-based. As for the experimental part:
as §1

Another experiment has as its system MOLM13. Kind of experiment: Cell viability assay (MTT) in MOLM13 cells. It is filed as cell-based. The following applies: Homo sapiens, MOLM-13, 168 h; MOLM13, after 7 days of treatment. The method, then:
as §1

Experiment [5] deals with MV4:11 xenotransplantation model. Description: In vivo efficacy in MV4:11 xenotransplantation model. Particulars: MV4:11 xenotransplantation model in mice, 25 mg/kg, i.p., q.d., 17 days of treatment. The source says: Exemplary compounds disclosed herein, were used for in vivo studies in mice. Immunocompromised 8-10 week-old female NSG mice were used for in vivo efficacy studies in accordance with IACUC guidelines. Luciferase expressing human MV4:11 leukemia cells (MV4:11-luc) were engrafted intravenously via tail vein injection (1×10^7 cells/animal). Five days after transplantation mice were randomly assigned to a vehicle control or a compound treatment group (6-7 animals per group). Animals in each of the treatment groups were administered vehicle or compound A of the present disclosure by intraperitoneal (i.p.) injection. Treatment was continued for 17 days. Body weight was measured daily, while mean luminescence signal was measured in all mice at days 10 and 17 after initiating the treatment. […]

The test system of the next experiment is MV4:11. Description: Cell viability assay (MTT) in MV4:11 cells. It is filed as cell-based. The following applies: Homo sapiens, 168 h; MV4:11, after 7 days of treatment. As for the experimental part: as §1

As for `NC(=S)c1cccc(-c2cn(CC(CF)CF)c3cc(NC(=O)CCOCCOCCOCCOc4cccc5c4C(=O)N(C4CCC(=O)NC4=O)C5=O)ccc23)c1` (stereo not drawn) [Compound 1, N-(3-(3-carbamothioylphenyl)-1-(3-fluoro-2-(fluoromethyl)propyl)-1H-indol-6-yl)-3-(2-(2-(2-((2-(2,6-dioxopiperidin-3-yl)-1,3-dioxoisoindolin-4-yl)oxy)ethoxy)ethoxy)ethoxy)propanamide], the “Cell proliferation / viability” value in experiment [1] was “selectively blocks proliferation”. Moreover, the Differentiation entry in [2] is “induces differentiation”. Besides, the “Expression of MLL fusion target genes” value in [3] was “downregulates expression of MLL fusion target genes”. In addition, the “Degradation of ASH1L” value at ASH1L (FIG. 1, Western blot) was “Degradation of Ash1L induced”.

One may read the GI50 as the concentration giving 50% growth inhibition. Higher therefore signals lower sensitivity of the cells. As for `NC(=S)c1cccc(-c2cn(C3CCC(F)(F)CC3)c3cc(NC(=O)CCCCCCCCNC(=O)COc4cccc5c4C(=O)N(C4CCC(=O)NC4=O)C5=O)ccc23)c1` (stereo not drawn) [Compound 24, N-(3-(3-carbamothioylphenyl)-1-(4,4-difluorocyclohexyl)-1H-indol-6-yl)-9-(2-((2-(2,6-dioxopiperidin-3-yl)-1,3-dioxoisoindolin-4-yl)oxy)acetamido)nonanamide], the “Cell proliferation / viability” value in experiment [1] is recorded as “inhibits viability”. Moreover, the GI50 was 103 nM with KOPN8, over 6000 nM in the experiment with K562 control cell line, 52 nM in the experiment on MOLM13 and 62 nM in the experiment on MV4:11. In [4], the “Expression of MLL fusion protein target genes” value is “downregulates the expression of MLL fusion protein target genes”. In addition, the “Degradation of ASH1L” value on ASH1L (HeLa cells, after 24 h of treatment, FIG. 4 Panel A) is reported as “induces degradation of ASH1L”. In addition, the “Leukemia progression in vivo (bioluminescence signal, hCD45+ cells)” value in experiment [5] is “blocks leukemia progression”.
